One may read the IC50 as the point on the concentration scale where inhibition reaches its midpoint.

Among the data in ChEMBL document CHEMBL5352401, “Novel cudraisoflavone J derivatives as potent neuroprotective agents for the treatment of Parkinson's disease via the activation of Nrf2/HO-1 signaling” (Eur J Med Chem, 2022) are Activity, viability and IC50 values, retold here.

The structures appear in SMILES notation. The source made the active and inactive calls. No cut-off for these calls is given here.

Assay [1] relates to PC-12. The assay can be described thus: Cytotoxicity in rat PC-12 cells assessed as cell viability measured at 10 to 30 uM for 24 hrs by MTT assay. It is filed as functional, cell-based. To be noted: dose 10-30 µM. (In general: Formazan colour is commonly taken as a measure of viable cells.)
In assay [2] the test system is PC-12. The assay can be described thus: Neuroprotective activity against 6-OHDA-induced cytotoxicity in rat PC-12 cells at 10 to 30 uM for 4 hrs followed by exposure to 6-OHDA measured after 24 hrs by MTT assay. To be noted: dose 10-30 µM, time 28.0 hrs. It is filed as functional, cell-based.
For assay [3], the system named is PC-12. The assay can be described thus: Neuroprotective activity against 6-OHDA-induced cytotoxicity in rat PC-12 cells at 0.1 uM for 4 hrs followed by exposure to 6-OHDA measured after 24 hrs by MTT assay. The class given is functional, cell-based. To be noted: time 28.0 hrs.
The subject of assay [4] is PC-12. The assay can be described thus: Cytotoxicity in rat PC-12 cells assessed as cell viability measured upto 30 uM for 24 hrs by MTT assay relative to control. It is filed as functional. Particulars: up to 30 µM.
Assay [5] deals with PC-12. The assay can be described thus: Cytotoxicity in rat PC-12 cells assessed as cell viability measured upto 30 uM for 24 hrs by MTT assay. The class given is functional, cell-based.
The subject of assay [6] is PC-12. The assay can be described thus: Neuroprotective activity against 6-OHDA-induced cytotoxicity in rat PC-12 cells for 4 hrs followed by exposure to 6-OHDA measured after 24 hrs by MTT assay. The class given is functional, cell-based. Particulars: dose 0.1-30 µM, time 28.0 hrs.
Assay [7] relates to PC-12. The assay can be described thus: Cytotoxicity in rat PC-12 cells assessed as cell viability measured at 30 uM for 24 hrs by MTT assay relative to control. The class given is functional. Particulars: read-out: Activity.
In assay [8] the test system is PC-12. The assay can be described thus: Cytotoxicity in rat PC-12 cells assessed as cell viability incubated for 24 hrs by MTT assay. Particulars: PC-12, 24 h. It is filed as functional, cell-based.
The nature of assay [9]: Neurotoxicity in rotenone induced at rat PC-12 cells assessed as cell viability at 30 uM pretreated for 4 hrs followed by rotenone addition measured after 24 hrs by MTT assay (reference value: 53.4 +/- 2.6%). The class given is toxicity, cell-based. To be noted: time 28 hrs, read-out: Activity.
Assay [10] in a line: Neurotoxicity in rotenone induced at rat PC-12 cells assessed as cell viability pretreated with compound for 4 hrs followed by rotenone addition measured after 24 hrs by MTT assay. It is filed as toxicity, cell-based.

For the compound `CCOc1ccc(-c2coc3cc4c(c(O)c3c2=O)C=CC(C)(C)O4)cc1`, in the assay on PC-12 [1], the outcome was inactive. Besides, the result in the assay on PC-12 [2] and in the assay on PC-12 [3] was Active. For the same compound, in the assay on PC-12 [4], the Activity is roughly 80%.
Consider `COc1cccc(-c2coc3cc(O)c4c(c3c2=O)OC(C)(C)C(O)C4)c1` (stereo unspecified), for which, in the assay with PC-12 [2], the result was Active. Further, in the assay on PC-12 [5], the result was inactive. Moreover, in the assay on PC-12 [6], the Activity result is “Dose-Dependent Effect”. The viability at 30 µM turned out to be 86% with PC-12 [7] and 80.3% in assay [9]. The IC50 in the assay with PC-12 [8] was found to be 8 µM; in [10] it was 5.5 µM.
